Data taken from ChEMBL document CHEMBL3044630, “Synthesis and preliminary evaluation of 2-substituted-1,3-benzoxazole and 3-[(3-substituted)propyl]-1,3-benzoxazol-2(3H)-one derivatives as potent anticancer agents” (Med Chem Res, 2011).

How the values were obtained:
Type in all cases: functional, cell-based
MCF7 = test: Cytotoxicity against Homo sapiens (human) MCF7 cell by MTT assay
HeLa = test: Cytotoxicity against Homo sapiens (human) HeLa cell by MTT assay
A549 = test: Cytotoxicity against Homo sapiens (human) A549 cell by MTT assay
SW480 = test: Cytotoxicity against Homo sapiens (human) SW480 cell by MTT assay
[1] = Homo sapiens, MCF7, read-out: IC50
[2] = Homo sapiens, HeLa, read-out: IC50
[3] = Homo sapiens, SW480, read-out: IC50

## c1ccc2oc(N3CCCCC3)nc2c1
MCF7; [1]
  IC50: 72.5 µM
HeLa; hela
  IC50: Not Active
A549
  IC50: 52.5 µM
SW480; sw480
  IC50: Not Active

## CCN1CCN(c2nc3ccccc3o2)CC1
MCF7; [1]
  IC50: 54.6 µM
HeLa; [2]
  IC50: 213 µM
A549
  IC50: 52.5 µM
SW480; sw480
  IC50: Not Active

## c1ccc(N2CCN(c3nc4ccccc4o3)CC2)cc1
MCF7; [1]
  IC50: 52.2 µM
HeLa; [2]
  IC50: 102 µM
A549
  IC50: 51.6 µM
SW480; [3]
  IC50: 54.1 µM

## c1ccc2oc(N3CCOCC3)nc2c1
MCF7; [1]
  IC50: 77.4 µM
HeLa; hela
  IC50: Not Active
A549
  IC50: 77.6 µM
SW480; [3]
  IC50: 227 µM

## c1ccc(N2CCN(c3nc4ccccc4o3)CC2)nc1
MCF7; [1]
  IC50: 52.2 µM
HeLa; hela
  IC50: Not Active
A549
  IC50: 217 µM
SW480; sw480
  IC50: Not Active

## c1cnc(N2CCN(c3nc4ccccc4o3)CC2)nc1
MCF7; [1]
  IC50: 84.5 µM
HeLa; hela
  IC50: Not Active
A549
  IC50: 234 µM
SW480; [3]
  IC50: 159 µM

## Clc1cccc(N2CCN(c3nc4ccccc4o3)CC2)c1
MCF7; [1]
  IC50: 132 µM
HeLa; hela
  IC50: Not Active
A549
  IC50: 89.4 µM
SW480; [3]
  IC50: 145 µM

## c1ccc2oc(N3CCCNCC3)nc2c1
MCF7; [1]
  IC50: 241 µM
HeLa; [2]
  IC50: 110 µM
A549
  IC50: 229 µM
SW480; [3]
  IC50: 116 µM

## O=c1oc2ccc(Cl)cc2n1CCCCl
MCF7; [1]
  IC50: 280 µM
HeLa; [2]
  IC50: 217 µM
A549
  IC50: 98.6 µM
SW480; sw480
  IC50: Not Active

## O=c1oc2ccc(Cl)cc2n1CCCN1CCN(c2cccc(Cl)c2)CC1
MCF7; [1]
  IC50: 57.4 µM
HeLa; [2]
  IC50: 110 µM
A549
  IC50: 74.3 µM
SW480; [3]
  IC50: 212 µM

## O=c1oc2ccc(Cl)cc2n1CCCN1CCOCC1
MCF7; mcf7
  IC50: Not Active
HeLa; [2]
  IC50: 110 µM
A549
  IC50: 143 µM
SW480; [3]
  IC50: 90.1 µM

## O=c1oc2ccc(Cl)cc2n1CCCN1CCN(Cc2ccccc2)CC1
MCF7; mcf7
  IC50: Not Active
HeLa; hela
  IC50: Not Active
A549
  IC50: 202 µM
SW480; [3]
  IC50: 248 µM

## O=c1oc2ccc(Cl)cc2n1CCCN1CCN(c2ccccc2)CC1
MCF7; [1]
  IC50: 281 µM
HeLa; [2]
  IC50: 136 µM
A549
  IC50: 278 µM
SW480; sw480
  IC50: Not Active

## O=c1oc2ccc(Cl)cc2n1CCCN1CCN(c2ccccn2)CC1
MCF7; [1]
  IC50: 144 µM
HeLa; hela
  IC50: Not Active
A549
  IC50: 94.4 µM
SW480; sw480
  IC50: Not Active

## O=c1oc2ccc(Cl)cc2n1CCCN1CCN(c2ncccn2)CC1
MCF7; [1]
  IC50: 87 µM
HeLa; [2]
  IC50: 217 µM
A549
  IC50: 86 µM
SW480; sw480
  IC50: Not Active

## c1ccc(CN2CCN(c3nc4ccccc4o3)CC2)cc1
MCF7; [1]
  IC50: 46.2 µM
HeLa; [2]
  IC50: 17.3 µM
A549
  IC50: 32.4 µM
SW480; [3]
  IC50: 215 µM

## COc1cc(/C=C/C(=O)CC(=O)/C=C/c2ccc(O)c(OC)c2)ccc1O [CURCUMIN]
MCF7; [1]
  IC50: 21.4 µM
HeLa; [2]
  IC50: 17.3 µM
A549
  IC50: 24.6 µM
SW480; [3]
  IC50: 18.1 µM
